Reference: patent US12414952B2 (Merck Sharp & Dohme LLC, priority 2018, dated 2025)

Tests used:
[1] = molecular target: T1, human A2a adenosine receptor (Homo sapiens (Human), UniProt P29274); test: A2a binding affinity using an alternative radioligand binding assay, Method (C); conditions: Method (C): [3H]CGS21680, CHO.A2a membranes
Text: (§1) The A2a receptor affinity binding assay measured the amount of binding of a tritiated ligand with high affinity for the A2a adenosine receptor to membranes made from HEK293 or CHO cells recombinantly expressing the human A2a adenosine receptor, in the presence of varying concentrations of a compound of the invention. The data were generated using either filtration binding or a homogenous scintillation proximity assay (SPA).
Method (C): Measurement of A2a Binding Affinity Using an Alternative Radioligand Binding Assay
Membranes used in this procedure were made by washing cell cultures twice with DPBS buffer (Dulbecco's phosphate buffered saline without calcium and magnesium, ThermoFisher Scientific, Cat. No. A1285601), and harvesting the cell cultures by mechanical scraping. The cells were collected by centrifugation and re-suspended in 10 mM HEPES, pH 7.4 containing 0.1 mM benzamidine (Sigma, Cat. No. B6506) and 0.1 mM PMSF (phenylmethylsulfonyl fluoride, Sigma, Cat. No. 10837091001). Cells were freeze-thawed twice in a dry ice/ethanol bath and homogenized with 25 to 30 strokes in a glass dounce homogenizer (Wheaton, Cat. No. 357546). Membranes were pelleted at 40,000×g for 20 min at 4° C. and re-suspended in assay buffer (5 mM HEPES, pH 7.4, 5 mM MgCl2; supplemented with 0.1 mM benzamidine) at a protein concentration of 2.6 mg/mL. Protein concentration was determined by the Bio-Rad method (Bio-Rad, Cat. No. 5000002). Membranes were then incubated with adenosine deaminase (final concentration 2U/mL) for 20 min at 37° C. before use in the binding assay.
To perform the binding assay, 50 μg CHO.A2a membranes, 5 nM [^3H]CGS21680 (Perkin Elmer, Cat. No. NET1021), and 1 μL of test compound were combined in individual tubes to a volume of 100 μL. To define total and non-specific binding, wells containing 1% DMSO and 20 μM N-ethylcarboxamidoadenosine (Tocris Bioscience, Cat. No. 1691) respectively, were also included. The samples were incubated for 2 h at 37° C. The samples were filtered rapidly through a glass fiber filter using a cell harvester and washed with cold buffer (10 mM Tris, pH7.4, 5 mM MgCl2). The filter was allowed to dry and individual filters were placed into vials together with liquid scintillant and subjected to scintillation counting. After normalization to total and non-specific binding, the percent effect at each compound concentration was calculated. The plot of percent effect versus the log of compound concentration was analyzed electronically using a 4-parameter logistic fit based on the Levenberg-Marquardt algorithm to generate IC50 values.

[2] = molecular target: T1, human A2a adenosine receptor; test: A2a receptor affinity binding assay, method not indicated; conditions: method letter not given
Text: Method (A) describes the procedure used to measure A2a binding affinity using radioligand binding. Method (B) describes the procedure used to measure A2a binding affinity using SPA technology. Method (C) describes an alternative procedure used to measure A2a binding affinity using radioligand binding. The method used to measure A2b binding affinity is also described below. The method used to determine the A2a IC50 value reported for each compound in the table is indicated next to the reported value. The A2b IC50 value measured using the A2b binding affinity assay is shown in the table next to the compound under the corresponding A2a value.
as §1

T1 sequence (P29274 whole entry): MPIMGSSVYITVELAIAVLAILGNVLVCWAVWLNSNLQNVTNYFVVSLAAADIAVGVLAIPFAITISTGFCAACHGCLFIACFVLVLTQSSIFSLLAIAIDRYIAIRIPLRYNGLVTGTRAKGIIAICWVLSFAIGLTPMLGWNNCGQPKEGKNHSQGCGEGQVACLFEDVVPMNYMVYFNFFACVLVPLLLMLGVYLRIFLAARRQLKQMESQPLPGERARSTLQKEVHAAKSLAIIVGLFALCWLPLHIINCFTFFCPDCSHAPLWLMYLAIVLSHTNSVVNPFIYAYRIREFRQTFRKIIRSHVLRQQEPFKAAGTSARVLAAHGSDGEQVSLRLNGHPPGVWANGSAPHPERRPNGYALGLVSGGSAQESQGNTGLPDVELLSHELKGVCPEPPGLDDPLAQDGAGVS

| Structure (SMILES) | IC50 [1] | IC50 [2] |
| --- | --- | --- |
| COc1ccccc1-c1cc2nc(CCN3CC(F)(F)C3)nn2c(N)n1 [Example 2.18] | 668 nM |  |
| COc1cccc(-c2cc3nc(CCN4CC(F)(F)C4)nn3c(N)n2)c1 [Example 2.19] | 389 nM |  |
| Nc1nc(-c2ccccc2F)cc2nc(CCN3CC(F)(F)C3)nn12 [Example 2.20] | 241 nM |  |
| Nc1nc(-c2cccc(F)c2)cc2nc(CCN3CC(F)(F)C3)nn12 [Example 2.21] | 91.7 nM |  |

Continued, values first:

| IC50 [1] | IC50 [2] | Structure (SMILES) |
| --- | --- | --- |
| 275 nM |  | Nc1nc(-c2ccc(F)cc2)cc2nc(CCN3CC(F)(F)C3)nn12 [Example 2.22] |
| 150 nM |  | Nc1nc(-c2ccccc2)cc2nc(CCN3CC(F)(F)C3)nn12 [Example 2.23] |
|  | 346 nM | Cc1c(-c2ccc(F)cc2)nc(N)c2nc(CCN3CCn4c(cnc4C(C)C)C3)nn12 [Example 18.6, 6-(4-fluorophenyl)-2-(2-(3-isopropyl-5,6-dihydroimidazo[1,5-a]pyrazin-7(8H)-yl)ethyl)-5-methyl-[1,2,4] triazolo[1,5-a]pyrazin-8-amine] |
